Experimental data published in patent US10925851B2 (Regents of the University of Minnesota, priority 2018, dated 2021).
Several values for one entry are separate records, joined by “and”; a condition that tells them apart may be missing. Equal values may be shown once. Entries after “also recorded” stand apart in the source; their conditions may differ.

Key:
[1] = target: T1, Aminopeptidase N (APN) (Homo sapiens, UniProt P15144); assay: Aminopeptidase N enzyme assay (Ala-AMC substrate, fluorescence); type: biochemical
T1 construct: purchased R&D Systems
Protocol: Single concentration studies at 10 μM: Aminopeptidase N assays were performed as described previously. Aminopeptidase N was purchased from R&D Systems. Amino-4-methylcoumarin (Ala-AMC) was purchased from Bachem. Briefly, 0.1 μg/μL APN was incubated with 1 μL of 1 mM inhibitor in 50 mM Tris buffer, pH 7.5, in 100 μL volume in a black 384-well plate in duplicate. The reaction was started with the addition of Ala-AMC substrate at a final concentration of 100 μM. The cleavage accumulation AMC was measured by exciting at 380 nm and reading the fluorescence at 460 nm on a Molecular Devices SpectraMax i3 plate reader for 20 min at room temperature. Percent inhibition is calculated in GraphPad Prism software using slopes in the linear range for each inhibitor at 10 μM.
Dose-Response Studies for APN: Aminopeptidase N enzyme assays were performed as described previously.^26 Briefly, 0.1 μg/μL APN was incubated with 1 μL inhibitor in 50 mM Tris buffer, pH 7.5, in 50 μL volume in a black 384-well plate in duplicate. Compounds were tested at 3× dilutions from 100 μM final concentration. The reaction was started with the addition of Ala-AMC substrate at a final concentration of 100 μM. The accumulation of AMC was measured by exciting at 380 nm and reading the fluorescence at 460 nm on a Molecular Devices SpectraMax i3 plate reader for 30 min at room temperature. Steady state velocities were used to determine IC50 values by fitting the velocities vs. inhibitor concentration to the sigmoidal concentration-response curve (variable slope) using GraphPad Prism.

[2] = tested on: male CF-1 mice; assay: Tail-flick assay (acute thermal pain); type: in vivo; conditions: i.c.v. 100 μg per mouse, 15-90 min
Protocol: The Tail-Flick test comprises of acute nociception in which the tail of the test animal is thermally stimulated. The time it takes for the animal to either flick or withdraw its tail is recorded as a measure of the response to the thermal stimuli. For this test, mice were gently restrained in a cloth; the tail-flick beam was centered on the dorsal surface of the tail (about 15 mm from the end of the tail). The heat source was activated, and the latency for withdrawal of the tail was recorded. The intensity of the tail-flick beam was adjusted so that the average withdrawal time of the baseline measurement was 2 to 4 sec. For each animal, a baseline response latency was determined in two consecutive responses measured at 5 minute intervals. Animals were tested at 15, 30, 45, 60, 75, and 90 minutes after drug administration.
While hot-plate method is more sensitive at supraspinal level, the tail-flick method mostly embodies a spinal reflex response to noxious stimuli. […] The time it takes for the animal to either flick or withdraw its tail is recorded as a measure of the response to the stimuli. […]
Columbus Instruments tail-flick analgesiometer was employed for this experiment. […] The heat source was activated, and the latency for withdrawal of the tail recorded. […] For each animal, a baseline response latency was determined in two consecutive responses measured at 5 min intervals. […]

[3] = tested on: mice; assay: Formalin test (persistent pain); type: in vivo, mouse
Protocol: The formalin test is another variant model for analyzing pain-relieving properties of test compounds in pain produced by inflammation or by injury to peripheral tissue. It is divergent from the acetic acid writhing assay in producing a biphasic response. These pharmacologically distinct phases are generally observed from 1 to 10 minutes, and 15 to 60 minutes post injection. While phase-I is caused by a rapid relay response in pain fibers, sensitization due to peripheral inflammation results in phase-II response in this model.
Mice were injected with 20 μl of 2% buffered formalin solution into the intraplantar region of hind paw of mice and the total time spent in licking and biting of the formalin-treated paw by the animals over the course of 30 min (phase I, acute pain behavior, 0-5 min; phase II, chronic pain behavior, 15-30 min) was recorded. Test compounds were injected 15 min prior to formalin administration. The pain response time (licking time) was recorded for every 5-min period during the 30-min recording for each mouse. The test compounds were dissolved in 50% saline in DMSO solution and delivered systemically

[4] = tested on: male CF1 mice; assay: Hot-plate test (acute thermal pain)
Protocol: The hot plate was the top surface of an enclosed cylindrical glass bath through which thermostatically controlled hot water was circulated. Under the conditions used, the temperature of the surface of the cylinder was maintained at 55° C. […] Reaction times were also determined twice for each mouse at 15-min intervals half an hour before injecting the drug to establish a baseline reaction time control value. Mice having a mean reaction time greater than 13 seconds were excluded as non-responders.
In this transient pain model, a thermal analgesiometer hot-plate was utilized for the determination of antinociceptive potency of test compounds against acute thermal stimulus. Mice were administered compounds via intraperitoneal (i.p.) or intracerebroventricular (i.c.v.) routes. […] The results are expressed as a percent of the maximum possible effect (% MPE) according to the equation: % MPE=[(Post-drug latency−Pre-drug latency)/(Cutoff−Pre-drug latency)]×100.
The hot-plate was the top surface of an enclosed cylindrical glass bath through which thermostatically controlled hot water was circulated. Under the conditions used, the temperature of the surface of the cylinder was maintained at 55° C. […] Test compounds were administered via intraperitoneal (i.p.) or intracerebroventricular (i.c.v.) routes. […] Animals with a mean reaction time greater than 13 seconds were excluded as non-responders.

T1 sequence (P15144 whole entry): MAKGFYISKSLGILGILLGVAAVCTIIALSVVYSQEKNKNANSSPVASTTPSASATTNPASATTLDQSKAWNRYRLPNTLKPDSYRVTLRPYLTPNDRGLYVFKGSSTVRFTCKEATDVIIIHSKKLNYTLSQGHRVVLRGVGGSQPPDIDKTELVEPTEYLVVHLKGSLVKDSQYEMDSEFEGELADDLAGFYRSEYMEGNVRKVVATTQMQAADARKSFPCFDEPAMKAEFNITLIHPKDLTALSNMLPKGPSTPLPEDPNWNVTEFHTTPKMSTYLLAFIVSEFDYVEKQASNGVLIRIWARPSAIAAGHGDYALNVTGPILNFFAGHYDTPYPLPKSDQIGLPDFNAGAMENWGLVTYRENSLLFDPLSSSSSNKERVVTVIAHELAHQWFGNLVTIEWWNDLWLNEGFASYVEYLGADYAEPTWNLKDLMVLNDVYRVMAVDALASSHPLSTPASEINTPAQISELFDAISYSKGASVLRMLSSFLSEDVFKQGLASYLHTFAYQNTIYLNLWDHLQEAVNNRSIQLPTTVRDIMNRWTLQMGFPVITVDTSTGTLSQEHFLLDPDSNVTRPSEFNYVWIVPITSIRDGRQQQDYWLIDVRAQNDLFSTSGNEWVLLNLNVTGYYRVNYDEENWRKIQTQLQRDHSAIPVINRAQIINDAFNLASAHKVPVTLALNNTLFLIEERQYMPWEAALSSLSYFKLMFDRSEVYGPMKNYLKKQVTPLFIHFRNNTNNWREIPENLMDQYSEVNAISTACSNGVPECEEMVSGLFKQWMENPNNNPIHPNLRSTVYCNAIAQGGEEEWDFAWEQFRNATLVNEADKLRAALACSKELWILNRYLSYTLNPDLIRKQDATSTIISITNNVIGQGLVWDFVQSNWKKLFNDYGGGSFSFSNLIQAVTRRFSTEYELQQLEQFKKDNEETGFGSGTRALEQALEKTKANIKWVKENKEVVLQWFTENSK

## CC(C)C[C@@H](C(=O)N[C@H](C(=O)OC1CCCC1)c1ccccc1)[C@H](O)C(=O)NO [Tosedostat]
[1]
  activity against APN (in words): micromolar activity against APN
[1]; dose response, 3x dilutions from 100 μM
  IC50: 930 nM and 933 nM
[1]; inhibitor 10 μM, read-out: APN @ 10 μM (percent inhibition)
  inhibition at 10 µM: 83%
[2]
  analgesic effect: does not impart analgesic effect; also recorded: does not prompt a potent analgesic effect; also recorded: ineffective in furnishing an antinociceptive response
[3]; i.p.
  phase-I response: dose-dependent response
[3]; i.p., dosages as low as 1 mg/Kg
  phase-II nociceptive action of formalin: completely suppressed
[3]; same assay
  potency in comparison with APAP: significantly advantageous in potency
[4]; i.c.v. 100 μg per mouse, 15-90 min post injection
  analgesic effect (% MPE time course): did not show analgesic effect; also recorded: nominal analgesic effect; also recorded: did not register substantial analgesic outcome; also recorded: ineffective in furnishing an antinociceptive response
[4]; i.c.v. 100 μg per mouse, 15 minutes after injection
  analgesic effect, single time-point: nominal analgesic effect
[4]; i.p., over the course of 90 minutes
  analgesic response in hot-plate compared to tail-flick experiments: about two-fold better analgesic response
